Entries after “also recorded” stand apart in the source; their conditions may differ.
Experiments:
[1] = tested on: StARD9 mutant (null or truncation mutant) cells; assay: Rescue of lysosomal tubulation by 27-HC in StARD9 mutant cells (FIG. 5); format: cell-based; settings: 27-HC in a cocktail that bypasses receptor-mediated endocytosis
From the text: (§1) FIG. 5. Impact of NPC1 and StARD9 Mutations on Rescue of Lysosomal Tubulation by 27-Hydroxycholesterol (27-HC). The ability of 27-HC to rescue lysosomal tubulation after depletion of NPC1 (shRNA-NPC1) or StARD9 (shRNA-STARD9) was compared to cells expressing the NPC1 (I1061T)-eGFP mutant (I1061T) or a eGFP-StARD9 construct expressing amino acids 1-4483 (STARD9-ΔSTART). ***—p<0.005; ns (not significant).
(§2) To test this idea, we treated either NPC1 mutant (null or I1061T) or StARD9 mutant (null or truncation mutant) cells with 27-HC in a cocktail that delivers it into the cytoplasm independent of receptor-mediated endocytosis. […] Next, we treated NPC1(−/−) mice with 27-HC by i.p. delivery.

[2] = tested on: NPC1 mutant (null or I1061T) cells; assay: Rescue of lysosomal tubulation by 27-HC in NPC1 mutant cells (FIG. 5); format: cell-based; settings: 27-HC in a cocktail that bypasses receptor-mediated endocytosis
From the text: as §1, §2

[3] = tested on: NPC1 (I1061T/I1061T) mice; assay: 27-HC treatment of NPC1 (I1061T/I1061T) mice by oral gavage; format: in vivo
Procedure: FIG. 11. Impact of 27-HC Treatment on NPC1 (I1061T/I1061T) Mice. Kaplan-Meier lifespan analysis of NPC1 (I1061T/I1061T) mice treated with either 0 mg/kg (dashed line) or 5 mg/kg (solid line) 27-HC three times per week by oral gavage.
FIG. 13. Impact of 27-HC Treatment on Lipid Accumulation in Livers of Male and Female Mice. Comparing livers of wild-type vs. NPC1 (I1061T/I1061T) mice, lipid accumulations (black arrows) are apparent in NPC1 mutant mice but not wild-type mice. This is true and both males and females.
as §2

NPC1(−/−) mice = assay: 27-HC treatment of NPC1(−/−) mice by intraperitoneal injection; format: in vivo; settings: i.p.
Procedure: FIG. 7A-C. Behavioral Analysis of NPC1(−/−) Mice Treated with 27-HC. NPC1(−/−) treated with 0 mg/kg (●) or 10 mg/kg (▴) 27-HC once per week by intraperitoneal injection were tested using (A) Tremor Scores p=0.01), (B) Rotarod Analysis (p=0.0037) or (C) Coathanger Tests (p=0.0229).
FIG. 8. Impact of 27-HC Treatment on NPC1 (−/−) Mice. Immunohistochemical staining of cerebella stained for calbindin after treatment with either Omg/kg or 10 mg·kg 27-HC once per week by intraperitoneal injection. Brown staining indicates Purkinje cell survival in lobes of the cerebellum (I, V, X).
FIG. 9A-C. Impact of 27-HC Treatment on NPC1 (−/−) Mice. Quantification of Purkinje cells preservation at days (A) P42, (B) P63 or (C) P77. Lobes are binned as I-V, VI-VII, VIII, or IX-X. A Student's t-test was calculated on total Purkinje cell counts from each timepoint (p-values).
FIG. 10. Impact of 27-HC Treatment on NPC1 (−/−) Mice. Kaplan-Meier lifespan analysis of NPC1 (−/−) mice treated with either 0 mg/kg (dashed line) or 10 mg/kg (solid line) 27-HC.
as §2

lysosomal tubulation = assay: Rescue of lysosomal tubulation with purified oxysterols in LDL-depleted media (FIG. 4); format: cell-based
Procedure: FIG. 4. Rescue of Lysosomal Tubulation with Purified Oxysterols. Measurements of lysosomal tubulation comparing control complete media (Control) to media depleted of LDL (LDL−) and depleted media supplemented with 27-hydroxycholesterol (27-HC), 24-hydroxycholesterol (24-HC) or 25-hydroxycholesterol (25-HC).
Fixed and live-cell imaging was performed on COS-7 cells grown in Dulbecco's Modified Eagle's Medium (DMEM) supplemented with 10% fetal bovine serum, 1% L-glutamine, and penicillin/streptomycin (Sigma-Aldrich). Transfections were performed using either Lipofectamine (Life Technologies), X-treme Gene DNA Transfection reagent (Roche, Indianapolis, IN) or Nanofect (Allstem, Richmond, CA). J774A.1 mouse macrophages were provided and cultured in the same media. Cells were tested for contamination using PCR-based test kits (Sartorius, Inc.; Cat #SMB95-1001).
Microscopy experiments were performed on a Zeiss Axiovert 200M (Thornwood, NY) run by Metamorph software (Sunnyvale, CA). Fixed and live cell imaging data was collected using either a Photometrics Coolsnap HQ or Cascade 1k CCD camera (Tucson, AZ). Timelapse imaging of cells expressing NPC1-EGFP and mCherry-StARD9 utilized a Dual-view camera (Photometrics) adapter to allow simultaneous acquisition of green and red channels at each timepoint. Kymographs were generated in Metamorph using a 1p m slice from each frame.
as §2

[4] = NPC1 (I1061T/I1061T) mice, oral gavage, vs vehicle alone

C[C@@H](CO)CCC[C@@H](C)[C@H]1CC[C@H]2[C@@H]3CC=C4C[C@@H](O)CC[C@]4(C)[C@H]3CC[C@]12C [27-HC, 27-hydroxycholesterol]
Rescue of lysosomal tubulation in StARD9 mutant cells [1]: not StARD9 mutant cells
Rescue of lysosomal tubulation in NPC1 mutant cells [2]: rescued lysosomal tubulation in NPC1 mutant; also recorded: corrects the lysosomal tubulation defects
Lifespan (Kaplan-Meier) ([3]; NPC1 (I1061T/I1061T) mice, 5 mg/kg vs 0 mg/kg three times per week oral gavage, p=0.0108): extended the lifespan of the mice; also recorded: Extension of lifespan was significant
Lipid accumulation in livers ([3]; NPC1 (I1061T/I1061T) mice, males and females): successful in reducing these lipid accumulations
Sex difference of treatment benefit ([3]; NPC1 (I1061T/I1061T) mice, oral gavage): worked better in males than females
Onset of symptoms [3, 4]: delayed the onset of symptoms
Severity of symptoms [3, 4]: reduced the severity of symptoms
Dosage needed for reduction of liver lipid accumulations, females ([3]; female NPC1 (I1061T/I1061T) mice): 40 mg/kg
Sufficiency of the highest dose used, livers ([3]; females compared to males): not sufficient in females compared to males
Dosage needed for reduction of liver lipid accumulations, males ([3]; male NPC1 (I1061T/I1061T) mice): 10 mg/kg
Lifespan (Kaplan-Meier) (NPC1(−/−) mice; 10 mg/kg vs 0 mg/kg, p=0.0214): extended the lifespan of the mice; also recorded: Extension of lifespan was significant
Onset of symptoms (NPC1(−/−) mice; vs vehicle alone): delayed the onset of symptoms
Purkinje cell preservation (NPC1(−/−) mice; vs vehicle alone): preserved Purkinje cells
Severity of symptoms (NPC1(−/−) mice; vs vehicle alone): reduced the severity of symptoms
Potency as signaling molecule for StARD9 among cholesterol and individual oxysterols (lysosomal tubulation): most potent candidate

From US20250114377A1, “TWO-PRONGED TREATMENT FOR NIEMANN PICK TYPE C DISEASE” (UNIVERSITY OF NOTRE DAME DU LAC, priority 2022, published 2025)
